Measured values as given in patent US4101662A, “Method for inhibiting emesis and compositions therefor” (priority 1973, dated 1978).
Counter-ions that a name gives are not always drawn. Like-named read-outs stand apart in the source and are kept apart here.

Tested on: emetic effect of apomorphine
Assay: Antiemetic activity (IM) against apomorphine-induced emesis in unanesthetized dogs, ED50
Format: in vivo
Conditions: for ED50: Canis lupus familiaris
Experimental: Description of this invention will therefore be made with especial emphasis on 4-(p-fluorobenzoyl)-1-[3-(p-fluorobenzoyl)propyl]piperidine hydrochloride, it being understood that the principles and practices involved are applicable to the other compounds of the formula first hereinabove set forth. The antiemetic activity of the compounds was determined by the following standard pharmacological tests.
The compounds were administered intramuscularly (IM) to unanesthetized dogs in the caudal muscles (left hind leg) and thirty minutes later they received apomorphine hydrochloride (0.1 mg./kg. s.c.). The compounds were administered in micrograms (mcg.) at several dose levels and the percent reduction in frequency of emesis relative to controls determined. From the data the ED50 in micrograms was determined.

[1] = IM, unanesthetized dogs, 30 minutes before apomorphine hydrochloride 0.1 mg/kg s.c., reduction in frequency of emesis relative to controls, read-out: ED50 and 95% Confidence Limits

| Structure (SMILES) | ED50 [1] [mg/kg] | further results |
| --- | --- | --- |
| O=C(CCCN1CCC(C(O)c2ccc(F)cc2)CC1)c1ccc(F)cc1 (stereo not drawn) [Example 9, 4-(p-Fluoro-α-hydroxybenzyl)-1-[3-(p-fluorobenzoyl)propyl]piperidine] |  | ED50 (im, read-out: ED50 and 95% Confidence Limits): 0.132 mg/kg |
| O=C(CCCN1CCC(C(=O)c2ccc(F)cc2)CC1)c1ccc(F)cc1 [Example 1, 4-(p-Fluorobenzoyl)-1-[3-(p-fluorobenzoyl)propyl]piperidine Hydrochloride] | 0.0083 |  |
| O=C(CCCN1CCC(C(=O)c2ccc(Cl)cc2)CC1)c1ccc(F)cc1 [Example 3, 4-(p-Chlorobenzoyl)-1-[3-(p-fluorobenzoyl)propyl]piperidine Hydrochloride] | 0.077 |  |
| O=C(CCCN1CCC(C(=O)c2ccc(Cl)cc2)CC1)c1ccc(Cl)cc1 [Example 4, 4-(p-chlorobenzoyl)-1-[3-(p-chlorobenzoyl)propyl]piperidine Hydrochloride] |  | ED50 and 95% Confidence Limits (Estimated Values) (IM, unanesthetized dogs, 30 minutes before apomorphine hydrochloride 0.1 mg/kg s.c., footnote a: estimated values): ~1401.0 (796-2468) mcg/kg |
| O=C(CCCN1CCC(C(=O)c2ccc(F)cc2)CC1)c1ccc(Cl)cc1 [Example 2, 4-(p-Fluorobenzoyl)-1-[3-(p-chlorobenzoyl)propyl]piperidine Hydrochloride] | 0.06 |  |
| OC(CCCN1CCC(C(O)c2ccc(F)cc2)CC1)c1ccc(F)cc1 (stereo not drawn) [Example 10, 4-(p-Fluoro-α-hydroxybenzyl)-1-[3-(p-fluoro-α-hydroxy)propyl]piperidine] |  | ED50 (IM, unanesthetized dogs, 30 minutes before apomorphine hydrochloride 0.1 mg/kg s.c., footnote b: graphic estimate, vehicle 80% polyethylene glycol 300 and 20% water, read-out: ED50 (value obtained from a graphic estimate)): ~1 mg/kg |
